From US20230407243A1, “GENETIC PLATFORM TO INVESTIGATE THE FUNCTIONS OF BACTERIAL DRUG EFFLUX PUMPS” (priority 2022, published 2023)

What was measured:
Assay type in all cases: cell-based, Escherichia coli
EKO-35 araC::acrB Pore = experiment: MIC susceptibility profiling, porinated efflux platform; conditions: EKO-35 araC::acr-B Pore compared to EKO-35-Pore
In short: (§1)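 Strains carry the fhuA ΔC/Δ4L pore integrated between glmS and pstS under a constitutive promoter, with pore activity checked by vancomycin susceptibility. Overnight LB cultures were adjusted in PBS pH 7.4 to OD600 ~1.0 and diluted 1/2000 into MHB II. 2-fold compound titrations were read by OD600 after 18 h at 37 °C.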

EKO-35 araC::emrAB Pore = experiment: as above; conditions: for Fold changes of MICs: EKO-35 araC::emrAB Pore compared to EKO-35-Pore; for MIC: Escherichia coli, EKO-35 araC::emrAB Pore, technical duplicate, read-out: Minimum inhibitory concentration
In short: as §1

EKO-35 araC::emrKY Pore = experiment: as above; conditions: for Fold changes of MICs: EKO-35 araC::emrKY Pore compared to EKO-35-Pore; for MIC: Escherichia coli, EKO-35 araC::emrKY Pore, technical duplicate, read-out: Minimum inhibitory concentration
In short: as §1

[1] = test system: EKO-35 araC::acrBD408A Pore; experiment: as above; conditions: for MIC: Escherichia coli, EKO-35 araC::acrBD408A Pore, technical duplicate, read-out: Minimum inhibitory concentration; for Fold changes of MICs: EKO-35 araC::acrBD408A Pore compared to EKO-35-Pore
In short: as §1

EKO-35 araC::macAB Pore = experiment: as above; conditions: for Fold changes of MICs: EKO-35 araC::macAB Pore compared to EKO-35-Pore; for MIC: Escherichia coli, EKO-35 araC::macAB Pore, technical duplicate, read-out: Minimum inhibitory concentration
In short: as §1

EKO-35 araC::acrEF Pore = experiment: as above; conditions: for Fold changes of MICs: EKO-35 araC::acrEF Pore compared to EKO-35-Pore; for MIC: Escherichia coli, Table 14A, porinated, technical duplicate, read-out: Minimum inhibitory concentration, EKO-35 araC::acrEF Pore
In short: as §1

EKO-35 araC::mexCD Pore = experiment: as above; conditions: for Fold changes of MICs: EKO-35 araC::mexCD Pore compared to EKO-35-Pore; for MIC: Escherichia coli, EKO-35 araC::mexCD Pore, technical duplicate, read-out: Minimum inhibitory concentration
In short: as §1

EKO-35 araC::acrD Pore = experiment: as above; conditions: for Fold changes of MICs: EKO-35 araC::acrD Pore compared to EKO-35-Pore; for MIC: Escherichia coli, Table 14A, porinated, technical duplicate, read-out: Minimum inhibitory concentration, EKO-35 araC::acrD Pore
In short: as §1

EKO-35 araC::mdtEF Pore = experiment: as above; conditions: for Fold changes of MICs: EKO-35 araC::mdtEF Pore compared to EKO-35-Pore; for MIC: Escherichia coli, Table 14A, porinated, technical duplicate, read-out: Minimum inhibitory concentration, EKO-35 araC::mdtEF Pore
In short: as §1

EKO-35 araC::mdtBC Pore = experiment: as above; conditions: for Fold changes of MICs: EKO-35 araC::mdtBC Pore compared to EKO-35-Pore; for MIC: Escherichia coli, EKO-35 araC::mdtBC Pore, technical duplicate, read-out: Minimum inhibitory concentration
In short: as §1

EKO-35 araC::mdtBC = experiment: MIC susceptibility profiling, efflux platform; conditions: for Fold change of MICs: EKO-35 araC::mdtBC compared to EKO-35
In short: (§2)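 Strains are grown overnight in LB at 37 °C, adjusted to OD600 ~1.0 in PBS (pH 7.4) and diluted 1/2000 into MHB II. They are incubated with twofold compound dilutions for 18 h at 37 °C. MIC comes from background-subtracted OD600.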

EKO-35 araC::acrBD408A = experiment: MIC susceptibility profiling, efflux platform; conditions: for Fold change of MICs: EKO-35 araC::acrBD408A compared to EKO-35; for MIC: Escherichia coli, Table 13B, non-porinated, technical duplicate, read-out: Minimum Inhibitory Concentration, EKO-35 araC::acrBD408A
In short: as §2

[2] = test system: EKO-35 araC::mexCD (MexCD from P. aeruginosa); experiment: MIC susceptibility profiling, efflux platform; conditions: for Fold change of MICs: EKO-35 araC::mexCD compared to EKO-35; for MIC: Table 13B, non-porinated, technical duplicate, read-out: Minimum Inhibitory Concentration, EKO-35 araC::mexCD
In short: as §2

EKO-35 araC::acrEF = experiment: MIC susceptibility profiling, efflux platform; conditions: for Fold change of MICs: EKO-35 araC::acrEF compared to EKO-35
In short: as §2

EKO-35 araC::emrKY = experiment: MIC susceptibility profiling, efflux platform; conditions: for Fold change of MICs: EKO-35 araC::emrKY compared to EKO-35; for MIC: Escherichia coli, Table 13B, non-porinated, technical duplicate, read-out: Minimum Inhibitory Concentration, EKO-35 araC::emrKY
In short: as §2

EKO-35 araC::acrD = experiment: MIC susceptibility profiling, efflux platform; conditions: for Fold change of MICs: EKO-35 araC::acrD compared to EKO-35; for MIC: Escherichia coli, Table 13A, non-porinated, technical duplicate, read-out: Minimum Inhibitory Concentration, EKO-35 araC::acrD
In short: as §2

EKO-35 araC::emrAB = experiment: MIC susceptibility profiling, efflux platform; conditions: for Fold change of MICs: EKO-35 araC::emrAB compared to EKO-35; for MIC: Escherichia coli, Table 13B, non-porinated, technical duplicate, read-out: Minimum Inhibitory Concentration, EKO-35 araC::emrAB
In short: as §2

EKO-35 araC::macAB = experiment: MIC susceptibility profiling, efflux platform; conditions: for Fold change of MICs: EKO-35 araC::macAB compared to EKO-35; for MIC: Escherichia coli, Table 13B, non-porinated, technical duplicate, read-out: Minimum Inhibitory Concentration, EKO-35 araC::macAB
In short: as §2

| Compound | Fold changes of MICs (EKO-35 araC::acrB Pore) [fold] | Fold changes of MICs (EKO-35 araC::emrAB Pore) [fold] | Fold changes of MICs (EKO-35 araC::emrKY Pore) [fold] | MIC [1] [µg/mL] | Fold changes of MICs (EKO-35 araC::macAB Pore) [fold] | Fold changes of MICs (EKO-35 araC::acrEF Pore) [fold] | Fold changes of MICs (EKO-35 araC::mexCD Pore) [fold] | Fold changes of MICs (EKO-35 araC::acrD Pore) [fold] | Fold changes of MICs (EKO-35 araC::mdtEF Pore) [fold] | Fold changes of MICs (EKO-35 araC::mdtBC Pore) [fold] | Fold change of MICs (EKO-35 araC::mdtBC) [fold] | Fold change of MICs (EKO-35 araC::acrBD408A) [fold] | Fold change of MICs [2] [fold] | MIC [2] [µg/mL] | Fold change of MICs (EKO-35 araC::acrEF) [fold] | Fold change of MICs (EKO-35 araC::emrKY) [fold] | Fold change of MICs (EKO-35 araC::acrD) [fold] | Fold change of MICs (EKO-35 araC::emrAB) [fold] | Fold change of MICs (EKO-35 araC::macAB) [fold] | Fold changes of MICs [1] [fold] | other results |
| --- | --- | --- | --- | --- | --- | --- | --- | --- | --- | --- | --- | --- | --- | --- | --- | --- | --- | --- | --- | --- | --- |
| NCCCNCCCCNCCCN [Spermine] | 1 | 1 | 1 | 500 | 1 | 1 | 1 | 1 | 1 | 1 | 1 | 1 | 1 | 2000 | 1 | 1 | 1 | 1 | 1 |  |  |
| NC[C@H]1O[C@H](O[C@H]2[C@H](O)[C@@H](O[C@H]3O[C@H](CO)[C@@H](O)[C@H](N)[C@H]3O)[C@H](N)C[C@@H]2N)[C@H](O)[C@@H](O)[C@@H]1O [kanamycin] | 2 | 1 | 1 | 0.781 | 2 | 1 | 1 | 1 | 1 | 1 | 1 | 1 | 1 | 1.56 | 1 | 1 | 1 | 1 | 1 | 1 | MIC (EKO-35 araC::emrAB Pore): 1.56 µg/mL; MIC (EKO-35 araC::emrKY Pore): 1.56 µg/mL; MIC (EKO-35 araC::acrEF Pore): 1.56 µg/mL; MIC (EKO-35 araC::mexCD Pore): 1.56 µg/mL; MIC (EKO-35 araC::acrD Pore): 1.56 µg/mL; MIC (EKO-35 araC::mdtEF Pore): 1.56 µg/mL; MIC (EKO-35 araC::mdtBC Pore): 1.56 µg/mL; MIC (EKO-35 araC::acrBD408A): 1.56 µg/mL; MIC (EKO-35 araC::emrKY): 1.56 µg/mL |
| CO[C@@H]1[C@@H](OC(N)=O)[C@@H](O)[C@H](Oc2ccc3c(O)c(NC(=O)c4ccc(O)c(CC=C(C)C)c4)c(=O)oc3c2C)OC1(C)C [novobiocin] | 512 | 8 | 1 | 0.391 | 1 | 32 | 4 | 32 | 16 | 4 | 4 | 1 | 8 | 25 | 128 | 1 | 64 | 8 | 1 | 1 | MIC (EKO-35 araC::emrAB Pore): 6.25 µg/mL; MIC (EKO-35 araC::emrKY Pore): 0.781 µg/mL; MIC (EKO-35 araC::macAB Pore): 0.781 µg/mL; MIC (EKO-35 araC::acrEF Pore): 25 µg/mL; MIC (EKO-35 araC::mexCD Pore): 3.12 µg/mL; MIC (EKO-35 araC::acrD Pore): 25 µg/mL; MIC (EKO-35 araC::mdtBC Pore): 3.12 µg/mL; efflux pump-mediated resistance vs EKO-35 (EKO-35 araC::mdtBC; MdtBC): conferred resistance; MIC (EKO-35 araC::acrBD408A): 3.12 µg/mL; MIC (EKO-35 araC::emrKY): 3.12 µg/mL; efflux pump-mediated resistance vs EKO-35 (EKO-35 araC::acrD; AcrD): confirmed; MIC (EKO-35 araC::acrD): 200 µg/mL; MIC (EKO-35 araC::emrAB): 25 µg/mL; MIC (EKO-35 araC::macAB): 1.56 µg/mL |
| CN[C@H](CC(C)C)C(=O)N[C@H]1C(=O)N[C@@H](CC(N)=O)C(=O)N[C@H]2C(=O)N[C@H]3C(=O)N[C@H](C(=O)N[C@H](C(=O)O)c4cc(O)cc(O)c4-c4cc3ccc4O)[C@H](O)c3ccc(c(Cl)c3)Oc3cc2cc(c3O[C@@H]2O[C@H](CO)[C@@H](O)[C@H](O)[C@H]2O[C@H]2C[C@](C)(N)[C@H](O)[C@H](C)O2)Oc2ccc(cc2Cl)[C@H]1O [vancomycin] | 1 | 1 | 1 | 6.25 | 1 | 1 | 1 | 1 | 1 | 0 | 1 | 1 | 1 | 200 | 1 | 1 | 1 | 1 | 1 | 1 | MIC (EKO-35 araC::macAB Pore): 6.25 µg/mL; MIC (EKO-35 araC::mexCD Pore): 6.25 µg/mL; MIC (EKO-35 araC::mdtEF Pore): 6.25 µg/mL; MIC (EKO-35 araC::mdtBC Pore): 1.56 µg/mL; MIC (EKO-35 araC::mdtBC; Escherichia coli, Table 13B, non-porinated, technical duplicate, read-out: Minimum Inhibitory Concentration, EKO-35 araC::mdtBC): 200 µg/mL; MIC (EKO-35 araC::acrBD408A): 200 µg/mL; MIC (EKO-35 araC::acrEF; Escherichia coli, Table 13A, non-porinated, technical duplicate, read-out: Minimum Inhibitory Concentration, EKO-35 araC::acrEF): 200 µg/mL; MIC (EKO-35 araC::emrKY): 200 µg/mL; MIC (EKO-35 araC::acrD): 200 µg/mL; MIC (EKO-35 araC::emrAB): 200 µg/mL; MIC (EKO-35 araC::macAB): 200 µg/mL |
